Measurements published in patent publication US7390795B2, “Treatment and prevention of tissue damage” (Pentraxin Therapeutics Limited, priority 2000, dated 2008).
Like-named read-outs stand apart in the source and are kept apart here.

Columns and labels:
C-reactive protein (CRP) = target: T1, C-reactive protein (CRP) (Homo sapiens, UniProt P02741); test: Inhibition of binding of 125I radiolabelled CRP to enzyme modified low density lipoprotein immobilized in microtitre plates
T1 construct: from tissue; host or cells: Human material
T1 sequence (P02741 19-224): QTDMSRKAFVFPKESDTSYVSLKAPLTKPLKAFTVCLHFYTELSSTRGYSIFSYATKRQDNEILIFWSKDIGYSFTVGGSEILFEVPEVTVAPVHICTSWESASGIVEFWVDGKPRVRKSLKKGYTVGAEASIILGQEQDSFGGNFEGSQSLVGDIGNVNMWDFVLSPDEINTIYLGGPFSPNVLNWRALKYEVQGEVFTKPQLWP
Procedure: Screening for Inhibitors of Binding of ^125I Radiolabelled CRP to Enzyme Modified Low Density Lipoprotein Immobilized in Microtitre Plates. […] However, likely critical ligands of importance in vivo in the pathogenesis of atherothrombosis, are modified forms of low density lipoprotein. […] All wells were then washed three times with 200 μl volumes of PBS before blocking by incubation for 1 h at room temperature with 100 μl per well of 0.2 m Tris pH 8.0. The wells were then washed again 3 times with 200 μl volumes of PBS and finally emptied before adding to each one 100 μl volumes of the following reagents.

[1] = Plasma clearance and serum concentration of injected human CRP and SAP in rats
Procedure: Human CRP or SAP were injected i.p. at 40 mg/kg 1 h after coronary artery ligation and then at 24 h intervals until the rats were killed on day 5. The proteins were dissolved in 10 mM Tris, 140 mM NaCl, pH 8.0, also containing 2 mM CaCl2 in the case of human CRP, and the control rats received injections of the buffer alone at the same intervals. […] Plasma clearance of human CRP was also studied in the same protocol in normal unoperated rats that had received cobra venom factor 24 h previously.

[2] = test system: experimental acute myocardial infarction produced by coronary artery ligation
Text: Induction and Measurement of Myocardial Infarction. Female Wistar rats bred at ICSM, Hammersmith campus were used at age 9-10 wk and weighed 230-280 g. […] All animals were carefully examined and were healthy before being fasted overnight prior to surgery. General anesthesia was induced with inhaled isoflurane and supplemental oxygen was provided at 1.0 liter/min. The chest was opened through the sixth intercostal space, anesthesia was discontinued but supplemental oxygen continued at 0.5 liter/min, and the pericardium was opened to allow the heart to be lifted cut of the thorax. The left anterior descending coronary artery was immediately ligated at a constant distance just below the atrium with a 5/0 silk suture, the heart was replaced and the chest closed whilst active ventilation with 100% oxygen was continued. The duration of pneumothorax was about 30 s. […] Buprenorphine 0.05 mg/kg was given immediately for post-operative analgesia and repeated 12 hourly.
Deep anesthesia was induced with isoflurane and the hearts were excised while still beating in sinus rhythm and immediately arrested in diastole by immersion in 10 ml of 30 mM KCl. They were then cleaned of any extraneous adherent tissue and weighed before being briefly chilled at −20° C. to produce sufficient rigidity to facilitate cutting into defined sections. Each heart was cut into four slices of equal thickness perpendicular to the course of the left coronary artery, starting from the apex of the heart and ending at the position of the ligature around that artery. These slices were designated A, B, C, and D starting from the apex, and each was washed with pure water and then immersed in 0.02 M phosphate buffer pH 7.4 containing 0.5 mg/ml of nitroblue tetrazolium (NBT) (Sigma) at 37° C. for 30 min. NBT stains viable but not infarcted myocardium.
After staining with NBT the slices were washed briefly in cold water before fixation in 10% buffered formalin for 48 h, and the proximal cut surface of each slice was then imaged under standard conditions with a high resolution digital camera. The captured images were coded and analyzed ‘blind’ without knowledge by the operators of the treatment received by the rat in question. Lines were drawn around the total area of the slice, the NBT negative infarct zone, and any parts of the image to be excluded from the estimation including valves, chordae tendinae, shadows and edges, and the area of the infarct was determined as a percentage of the total area. […] Statistical significance of differences between infarct sizes in different treatment groups within each experiment were sought by one way ANOVA and by Bonferroni t-tests.
In Vivo Treatments. […] Human CRP or SAP were injected i.p. at 40 mg/kg 1 h after coronary artery ligation and then at 24 h intervals until the rats were killed on day 5. The proteins were dissolved in 10 mM Tris, 140 mM NaCl, pH 8.0, also containing 2 mM CaCl2 in the case of human CRP, and the control rats received injections of the buffer alone at the same intervals.

[3] = Experiment 2, 40 mg/kg i.p. 1 h after ligation then every 24 h, day 5
[4] = Experiment 2, 5 rats treated, 40 mg/kg i.p. daily

| Molecule | Inhibition of CRP binding to enzyme modified LDL, in words (C-reactive protein (CRP)) | Infarct size mean (SD) % [2, 3] | Day 5 survivors [2, 4] | Percent inhibition of binding of radiolabelled CRP to immobilized enzyme modified low density lipoprotein (C-reactive protein (CRP); compound molarity 1 μM) | Percent inhibition of binding of radiolabelled CRP to immobilized enzyme modified low density lipoprotein (C-reactive protein (CRP); compound molarity 10 μM) | Percent inhibition of binding of radiolabelled CRP to immobilized enzyme modified low density lipoprotein (C-reactive protein (CRP); compound molarity 100 μM) | Percent inhibition of binding of radiolabelled CRP to immobilized enzyme modified low density lipoprotein (C-reactive protein (CRP); compound molarity 1 mM) | Percent inhibition of binding of radiolabelled CRP to immobilized enzyme modified low density lipoprotein (C-reactive protein (CRP); compound molarity 10 mM) | other results |
| --- | --- | --- | --- | --- | --- | --- | --- | --- | --- |
| O=C(O)CN(CCN(CC(=O)O)CC(=O)O)CC(=O)O [EDTA] | All binding was inhibited |  |  |  |  |  |  |  |  |
| Human CRP: isolated pure human C-reactive protein, a plasma pentraxin |  | 17.6 (0.4) % | 3 |  |  |  |  |  | Serum concentration of the injected protein ([1]; coronary artery ligated rats killed 24 h after the last of 5 daily 40 mg/kg i.p. injections): 13000 to 53000 ng/mL; Plasma clearance in decomplemented rats ([1]; single 40 mg/kg i.p., cobra venom factor 250 U/kg 24 h beforehand, unoperated rats): not affected by complement depletion; Infarct size mean (SD) % ([2]; Experiment 1, 40 mg/kg i.p. 1 h after ligation then every 24 h, day 5): 21.2 (2.0) %; Day 5 survivors ([2]; Experiment 1, 5 rats treated, 40 mg/kg i.p. daily): 4; Day 5 survivors ([2]; Table 3 experiment, 5 or 6 rats treated): 3; Infarcts larger than in control untreated animals ([2]; complement sufficient rats, day 5, Table 3 experiment): approximately 40%; Clinical condition ([2]; coronary artery ligated rats, 40 mg/kg i.p.): rapidly became clinically less well than buffer-treated controls; Infarcts larger than in control rats treated with buffer or human SAP ([2]; day 5, Table 2 experiments): about 40%; Effect on the reduced infarct size in decomplemented rats ([2]; rat, in vivo): no effect at all; Infarct size mean (SD) % ([2]; rat, in vivo): 19.7 (1.6) %; Clinical condition ([2]; rats not operated on, same doses): absolutely no ill effects |
| N[C@@H](COP(=O)(O)O)C(=O)O [Phosphoserine, phosphoserine] |  |  |  | 0 | 0 | 0 | 0 | 38 |  |
| Human SAP: human serum amyloid P component, pentraxin closely related to CRP |  | 12.4 (1.9) % | 5 |  |  |  |  |  | Clinical condition ([2]; normal or coronary artery ligated rats): no adverse clinical effects |
| NCCOP(=O)(O)O [Phosphoethanolamine, phosphoethanolamine] | inhibition at high concentration, but only modest effects when diluted |  |  | 0 | 0 | 39 | 90 | 92 |  |
| CCCCCCCCCCCCCCCCOP(=O)([O-])OCC[N+](C)(C)C [Hexadecyl phosphocholine, hexadecyl phosphocholine] |  |  |  | 0 | 0 | 76 | 73 | 94 | IC50 for inhibition of CRP binding to enzyme modified LDL (C-reactive protein (CRP); stated in words): in the micromolar range |
